Test system: LNCaP cells
Assay: Androgen regulation of gene expression by qPCR in LNCaP cells stimulated with R1881
Assay type: cell-based
Conditions: target gene to GAPDH ratio
Text: FIG. 6, a illustrates the tissue specificity of the 4 contiguous genes in the 14q13.3-14q21.1 region which was interrogated in the expo dataset (using Oncomine) and expression (in normalized expression units) is shown for 28 distinct tumor types and prostate cancer. FIG. 6, b and -c illustrate androgen regulation of the contiguous 14q13.3-14q21.1 genes (FIG. 6, b) and ETV1 (FIG. 6, c), as determined by qPCR in LNCaP cells with (+) or without (−) stimulation by the synthetic androgen R1881. Ratios of target gene to GAPDH (mean (n=4)+S.E.) are shown. FIG. 6, d illustrates that LNCaP and its androgen insensitive derivative, C4-2B, were profiled using a microarray (Agilent Whole Genome Microarrays), in which the top ten most differentially expressed features (LNCaP/C4-2B) are shown. FIG. 6, e-g illustrate qPCR results that show decreased expression of androgen regulated genes in C4-2B compared to LNCaP, for markers ETV1 (FIG. 6, e) and PSA (FIG. 6, f), and the 4 contiguous transcripts at 14q13.3-14q21.1 (FIG. 6, g).
Additional prostate cancer cell lines were tested to screen for ERG and ETV1 expression by quantitative PCR (qPCR), to identify additional genetic rearrangements. The following cells were tested: an immortalized benign prostate epithelial cell line (RWPE) and 8 prostate cancer cell lines (MDA-PCa 2B, LNCaP, VCaP, LAPC4, 22Rv1, NCI-H660, PC3 and DU145). Quantitative PCR (QPCR) was performed by using the oligonucleotide primers shown in Table 1 (“Fusion QPCR” and “Androgen QPCR” sections) with standard laboratory procedures and reagents (Power SYBR Green Mastermix and 7300 Real Time PCR system, Applied Biosystems, Foster City, Calif.). All oligonucleotide primers were synthesized by standard methods (performed by Integrated DNA Technologies, Coralville, Iowa). HMBS and GAPDHS, and PSA6 primers were as described previously (Vandesompele et al., Genome Biol. 3:RESEARCH0034 (2002); Specht et al., Am J. Pathol. 158: 419 (2001)). Androgen stimulation reactions were performed in quadruplicate, and all other reactions were performed in duplicate.

Q: `C[C@]1(O)CC[C@H]2[C@@H]3CCC4=CC(=O)CCC4=C3C=C[C@@]21C` [R1881] was tested. Which “expression of ETV1 following R1881 stimulation” value (with vs without R1881, p=0.0004) did it give?
A: Its value is 1.8 fold.

Q: And the “expression of SLC25A21 following R1881 stimulation” value (with vs without R1881, p=0.008)?
A: Its value is 0.75 fold.

Q: What about the “expression of FOXA1 following R1881 stimulation” value (with vs without R1881, p=0.05) of the same compound?
A: Its value is 1.3 fold.

Q: What about the “expression of MIPOL1 following R1881 stimulation” value (with vs without R1881, p=0.08) of the same compound?
A: Its value is 1.2 fold.

Q: What about the “expression of TTC6 following R1881 stimulation” value (with vs without R1881, p=0.10) of the same compound?
A: Its value is 0.70 fold.

Reference: patent US10167517B2, “MIPOL1-ETV1 gene rearrangements” (THE REGENTS OF THE UNIVERSITY OF MICHIGAN, priority 2007, dated 2019)
